Source: ChEMBL document CHEMBL1127227, “1H-1,2,4-triazole angiostensin II receptor antagonists: qC-linkedq analogs of SC-50560” (Bioorg Med Chem Lett, 1994)
“And” between values parts separate entries of the source, which are not always exact repeats. Equal values may be shown once.

Tests used:
Angiotensin II receptor = biological target: T1, Angiotensin II receptor (Rattus norvegicus, UniProt P29089+P25095+P35351); assay: Inhibition of [125I]- AII binding to rat uterine membrane angiotensin II receptor
T1 sequence (P29089 whole entry): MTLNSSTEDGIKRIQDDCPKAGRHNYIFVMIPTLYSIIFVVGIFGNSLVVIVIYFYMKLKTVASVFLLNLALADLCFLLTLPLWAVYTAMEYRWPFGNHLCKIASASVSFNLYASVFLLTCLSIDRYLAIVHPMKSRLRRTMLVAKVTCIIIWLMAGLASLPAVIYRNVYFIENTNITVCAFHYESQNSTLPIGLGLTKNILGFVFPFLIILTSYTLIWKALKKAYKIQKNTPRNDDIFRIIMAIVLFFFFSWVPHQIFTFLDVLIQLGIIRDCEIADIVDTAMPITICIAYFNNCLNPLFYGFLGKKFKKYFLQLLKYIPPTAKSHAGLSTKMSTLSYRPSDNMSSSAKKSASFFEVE
T1 sequence (P25095 whole entry): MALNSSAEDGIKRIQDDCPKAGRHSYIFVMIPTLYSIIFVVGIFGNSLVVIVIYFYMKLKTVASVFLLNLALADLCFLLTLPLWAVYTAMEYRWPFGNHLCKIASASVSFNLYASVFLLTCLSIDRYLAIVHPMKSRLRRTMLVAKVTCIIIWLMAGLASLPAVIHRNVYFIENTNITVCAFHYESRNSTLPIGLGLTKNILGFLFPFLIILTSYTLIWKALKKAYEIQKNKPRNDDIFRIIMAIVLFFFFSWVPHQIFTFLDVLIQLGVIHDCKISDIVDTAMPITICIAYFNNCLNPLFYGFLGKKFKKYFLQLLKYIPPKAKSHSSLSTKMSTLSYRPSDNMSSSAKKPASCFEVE
T1 sequence (P35351 whole entry): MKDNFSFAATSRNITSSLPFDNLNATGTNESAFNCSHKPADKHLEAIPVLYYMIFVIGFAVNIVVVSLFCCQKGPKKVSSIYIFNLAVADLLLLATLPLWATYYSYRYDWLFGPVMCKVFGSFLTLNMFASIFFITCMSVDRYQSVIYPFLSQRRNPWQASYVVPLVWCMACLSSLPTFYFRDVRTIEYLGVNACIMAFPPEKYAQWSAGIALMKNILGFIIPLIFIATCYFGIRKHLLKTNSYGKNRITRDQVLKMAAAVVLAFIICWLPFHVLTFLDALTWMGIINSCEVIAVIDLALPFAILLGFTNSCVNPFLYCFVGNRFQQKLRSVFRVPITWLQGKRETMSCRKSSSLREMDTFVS

Oryctolagus cuniculus = organism: Oryctolagus cuniculus; assay: Antagonism of AII-contracted rabbit aortic rings; format: functional, organism-based, Aorta; settings: for Kb: Oryctolagus cuniculus, Aorta, read-out: pA2 (converted)

IC50 (Angiotensin II receptor) | SMILES | Kb (Oryctolagus cuniculus) [nM] | pA2 (Oryctolagus cuniculus)
710 nM | CCCCc1nc(C(F)(F)c2ccc(-c3ccccc3-c3nn[nH]n3)cc2)n(CCCC)n1 | – | –
140 nM | CCCCc1nc(Cc2ccc(-c3ccccc3-c3nnn(C(c4ccccc4)(c4ccccc4)c4ccccc4)n3)cc2)n(CCCC)n1 | – | –
240 nM | CCCCc1nc(Cc2ccc(-c3ccccc3C(=O)O)cc2)n(CCCC)n1 | 79.4 | –
12000 nM and 6700 nM | CCCCc1nc(Cc2ccc(-c3ccccc3-c3nn[nH]n3)cc2)nn1CCCC | 10000 | 5.3
16 nM | CCCCc1nc(Cc2ccc(-c3ccccc3-c3nn[nH]n3)cc2)n(CCCC)n1 | 3.16 | –
9.5 nM | CCCCn1nc(CCc2ccccc2)nc1Cc1ccc(-c2ccccc2-c2nn[nH]n2)cc1 | 12.6 | –
29000 nM | CCCCc1nc(C(C)c2ccc(-c3ccccc3-c3nn[nH]n3)cc2)n(CCCC)n1 (stereo not drawn) | – | –
40 nM | CCCCn1nc(C(F)(F)CCC)nc1Cc1ccc(-c2ccccc2-c2nn[nH]n2)cc1 | 10 | –
32000 nM | CCCCc1nc(C(=O)c2ccc(-c3ccccc3-c3nn[nH]n3)cc2)n(CCCC)n1 | – | –
1800 nM | CCCCc1nc(C(O)c2ccc(-c3ccccc3-c3nn[nH]n3)cc2)n(CCCC)n1 (stereo not drawn) | 251 | –
– | CCCCc1nc(CCCC)n(Cc2ccc(-c3ccccc3-c3nn[nH]n3)cc2)n1 | 2 | –
